Data as given in US20120142005A1, “METHOD FOR SCREENING OF REGENERATIVE MEDICINE” (TAKEDA PHARMACEUTICAL COMPANY LIMITED, priority 2009, published 2012).

How the values were obtained:
Type in all cases: cell-based
[1] = system: human mesenchymal stem cells; assay: Bone differentiation of human mesenchymal stem cells: expression of Alp1, Runx2, Col1a1 and PTHR by quantitative RT-PCR; conditions: 8 days; for level of expression of Alp1: 3 μM compound added with bone differentiation induction, relative to DMSO control
Method: Then, the influence of the selected compounds was examined on bone differentiation of human mesenchymal stem cells. The human mesenchymal stem cells were maintained and cultured using the same technique as in Example 6. Cells were seeded on a 96-well plate to 1,000 cells per well and then cultured overnight using the growth medium. Thereafter, the bone differentiation was induced by exchanging the medium with a medium made by addition of 10% calf fetal serum, 2 mM GlutaMAX-1, 10 mMβ-glycerophosphate (Wako Pure Chemical Industries Ltd.), 0.05 mM ascorbic acid-2-phosphate (Wako Pure Chemical Industries Ltd.), 0.1 μM dexamethasone (Wako Pure Chemical Industries Ltd.), and 1× penicillin-streptomycin (Sigma) to low-glucose DMEM. Simultaneously with inducing bone differentiation, each selected compound was added to a final concentration of 3 μM, followed by adhesion culture for 8 days. After the end of culture, the level of expression of Alkaline phosphatase (Alp1) as an initial osteoblast marker was measured using the same technique as in Example 1.
The expression of other bone differentiation markers for which BIO or BrdU was added was also examined. Adhesion culture was performed for 8 days after adding BIO or BrdU, followed by measuring the levels of expression of runt-related transcription factor 2 (Runx2), collagen type 1 alpha 1 (Col1a1), and parathyroid hormone receptor (PTHR) using the same technique as in Example 1.

[2] = system: human mesenchymal stem cells; assay: Bone differentiation of human mesenchymal stem cells: staining with alkaline phosphatase; conditions: 8 days
Method: To further verify the influence of compounds on bone differentiation, staining with alkaline phosphatase was performed. Simultaneously with inducing bone differentiation, 3 μM BIO or 10 μM BrdU was added, followed by adhesion culture for 8 days. After culture, cells were fixed with 4% paraformaldehyde (Wako Pure Chemical Industries Ltd.) for 30 minutes and then washed 3 times with PBS. Alkaline phosphatase kit III (Vector Laboratories) was used according to the appended protocol to stain with alkaline phosphatase.

[3] = system: human mesenchymal stem cells; assay: Bone differentiation of human mesenchymal stem cells: amount of calcium accumulated in cells; conditions: 15 days
Method: In addition, the amount of calcium accumulated in cells was examined. Simultaneously with inducing bone differentiation, 3 μM BIO or 10 μM BrdU was added, followed by adhesion culture for 15 days. After culture, cells were washed with PBS, followed by dissolving the cells in a solution consisting of 10 mM Tris-HCl and 0.2% TritonX-100. Using a portion of the solution, the protein concentration was measured employing BCA protein assay kit (Pierce). Hydrochloric acid was added to a final concentration of 0.5 N to the remaining solution, which was then shaken overnight. The amount of calcium dissolving in the solution containing 0.5 N hydrochloric acid was measured using Calcium E-test Kit Wako (Wako Pure Chemical Industries Ltd.). The amount of calcium used the value corrected for the amount of protein for analysis.

[4] = system: human mesenchymal stem cells; assay: Adipose differentiation of human mesenchymal stem cells: expression of adiponectin and PPARγ by quantitative RT-PCR; conditions: for level of expression of adiponectin: 3 μM compound added with adipose differentiation induction, 5 days, relative to DMSO control; for level of expression of PPARγ: adipose differentiation, 5 days (FIG. 12a)
Method: There was possibility that the selected compounds control the differentiation of adult stem cells as well as ES cells. Accordingly, the influence of these selected compounds was examined on adipose differentiation of human mesenchymal stem cells. The human mesenchymal stem cells were purchased from Lonza and subjected to adhesion culturing using a medium made by addition of 10% calf fetal serum, 2 mM GlutaMAX-1, and 1× penicillin-streptomycin (Sigma) (hereinafter referred to as “growth medium”) to low-glucose DMEM (Invitrogen). Upon induction of an adipose differentiation, cells were seeded on a 96-well plate to 3,000 cells per well and then cultured overnight using the growth medium. Thereafter, the adipose differentiation was induced by exchanging the growth medium with an adipose differentiation induction medium (i.e., a medium made by addition of 10% calf fetal serum, 2 mM GlutaMAX-1, 0.5 mM 3-isobutyl-1-methylxanthine (IBMX, Wako Pure Chemical Industries Ltd.), 10 μg/ml insulin (Wako Pure Chemical Industries Ltd.), 1 μM dexamethasone (Wako Pure Chemical Industries Ltd.), 200 μM indomethacin (Wako Pure Chemical Industries Ltd.), and 1× penicillin-streptomycin (Sigma) to high-glucose DMEM (Invitrogen)). Simultaneously with inducing adipose differentiation, each selected compound was added to a final concentration of 3 μM, followed by culture for 5 days. After 5 days, the level of expression of adiponectin as a fat cell marker was measured using the same technique as that described in Example 1.
In addition, the level of expression of PPARγ as a master regulator of adipose differentiation for which the 3 compounds (Y-27632, HA-100 and capsazepine) were each added was also measured using the same technique.

[5] = system: human mesenchymal stem cells; assay: Adipose differentiation of human mesenchymal stem cells: fat droplet formation, oil red O staining; conditions: adhesion culturing 5 days
Method: The influence of the 3 compounds on fat droplet formation was then examined. Simultaneously with inducing adipose differentiation, 10 μM Y-27632, 10 μM HA-100, or 3 μM capsazepine was added to an adipose differentiation induction medium, followed by adhesion culturing for 5 days. Thereafter, the cells were fixed with 4% paraformaldehyde (Wako Pure Chemical Industries Ltd.) for 30 minutes and then washed 3 times with PBS. In addition, the cells were stained with 0.36% oil red 0 (Chemicon) at room temperature for 50 minutes and then washed 3 times with distilled water, followed by observing and photographing the cell.

[6] = system: human mesenchymal stem cells; assay: Adipose differentiation of human mesenchymal stem cells: amount of adiponectin in culture solution, ELISA; conditions: adhesion culture 8 days
Method: In addition, when each of the 3 compounds was added, the amount of adiponectin contained in a corresponding culture solution was measured. Simultaneously with inducing adipose differentiation, 10 μM Y-27632, 10 μM HA-100, or 3 μM capsazepine was added, followed by adhesion culture for 8 days. After culture, the amount of adiponectin contained in the culture solution was measured using a human adiponectin ELISA kit (R&D systems).

O=C1Nc2cc(Br)ccc2/C1=C1/Nc2ccccc2/C1=N\O [BIO, 6-bromoindirubin-3′ oxime]
level of expression of Alp1 [1]: noticeably increasing the level of expression of Alp1
level of expression of Col1a1 ([1]; 3 μM compound): noticeably increased
level of expression of PTHR ([1]; 3 μM compound): noticeably increased
level of expression of Runx2 ([1]; 3 μM compound): noticeably increased
stainability with alkaline phosphatase (alkaline phosphatase activity) ([2]; 3 μM compound): increased the stainability with alkaline phosphatase
amount of calcium in cells, corrected for amount of protein ([3]; 3 μM compound): increased the amount of calcium in cells

O=c1[nH]c(=O)n([C@H]2C[C@H](O)[C@@H](CO)O2)cc1Br [BrdU, 5-Bromo-2′-deoxyuridine]
level of expression of Alp1 [1]: noticeably increasing the level of expression of Alp1
level of expression of Col1a1 ([1]; 10 μM compound): noticeably increased
level of expression of PTHR ([1]; 10 μM compound): noticeably increased
level of expression of Runx2 ([1]; 10 μM compound): noticeably increased
stainability with alkaline phosphatase (alkaline phosphatase activity) ([2]; 10 μM compound): increased the stainability with alkaline phosphatase
amount of calcium in cells, corrected for amount of protein ([3]; 10 μM compound): increased the amount of calcium in cells

O=S(=O)(c1cccc2cnccc12)N1CCNCC1 [HA-100]
level of expression of adiponectin [4]: increase the level of expression of adiponectin
level of expression of PPARγ [4]: increasing the level of expression of PPARγ in a concentration-dependent manner
amount of fat droplets (oil red O) compared to DMSO control ([5]; 10 μM compound): the amount of fat droplets increased
amount of adiponectin contained in the culture solution ([6]; 10 μM compound): noticeably increased the amount of adiponectin

C[C@@H](N)[C@H]1CC[C@H](C(=O)Nc2ccncc2)CC1 [Y-27632]
level of expression of adiponectin [4]: increase the level of expression of adiponectin
level of expression of PPARγ [4]: increasing the level of expression of PPARγ in a concentration-dependent manner
amount of fat droplets (oil red O) compared to DMSO control ([5]; 10 μM compound): the amount of fat droplets increased
amount of adiponectin contained in the culture solution ([6]; 10 μM compound): noticeably increased the amount of adiponectin

Oc1cc2c(cc1O)CN(C(=S)NCCc1ccc(Cl)cc1)CCC2 [capsazepine]
level of expression of adiponectin [4]: increase the level of expression of adiponectin
amount of fat droplets (oil red O) compared to DMSO control ([5]; 3 μM compound): no noticeable activity of increasing fat droplet formation
amount of adiponectin contained in the culture solution ([6]; 3 μM compound): no action of increasing the amount of adiponectin
